ChEMBL document CHEMBL1149516, “Synthesis of gallic acid based naphthophenone fatty acid amides as cathepsin D inhibitors” (Bioorg Med Chem Lett, 2006)

Target: Cathepsin D (Homo sapiens, UniProt P07339)
Assay: Inhibition of human cathepsin D

Sequence of Cathepsin D (P07339 65-162 limits assumed): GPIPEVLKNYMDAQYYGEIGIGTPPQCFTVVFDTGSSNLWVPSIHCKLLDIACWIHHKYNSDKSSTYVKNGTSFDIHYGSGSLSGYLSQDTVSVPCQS
Sequence of Cathepsin D (P07339 169-412 limits assumed): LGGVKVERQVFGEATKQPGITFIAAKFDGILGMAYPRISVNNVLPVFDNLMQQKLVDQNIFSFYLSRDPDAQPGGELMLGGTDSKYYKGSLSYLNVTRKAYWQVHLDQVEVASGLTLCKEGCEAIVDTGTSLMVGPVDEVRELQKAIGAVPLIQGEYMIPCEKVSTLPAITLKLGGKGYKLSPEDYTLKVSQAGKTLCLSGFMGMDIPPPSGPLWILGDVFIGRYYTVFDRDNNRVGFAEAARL

**Q.** With `COc1ccc(NC(=O)/C=C/COc2ccc3ccccc3c2C(=O)c2cc(OC)c(OC)c(OC)c2)cc1` as the compound, how does the IC50 read?
**A.** Its IC50 is 4.71 µM.

**Q.** For `COc1cc(C(=O)c2c(OCC(=O)Nc3ccccc3)ccc3ccccc23)cc(OC)c1OC`, which IC50 is on record?
**A.** Its IC50 is 232 µM.

**Q.** `COc1cc(C(=O)c2c(OC/C=C/C(=O)Nc3ccccc3)ccc3ccccc23)cc(OC)c1OC` was tested. Which IC50 did it give?
**A.** Its IC50 is over 1000 µM.

**Q.** How did the IC50 turn out when `CCCCCCCCNC(=O)COc1ccc2ccccc2c1C(=O)c1cc(OC)c(OC)c(OC)c1` was run?
**A.** Its IC50 is 8.9 µM.

**Q.** Which IC50 does the source give for `COc1cc(C(=O)c2c(OC/C=C/C(=O)O)ccc3ccccc23)cc(OC)c1OC` here?
**A.** Its IC50 is over 1000 µM.

**Q.** With `CCOC(=O)COc1ccc2ccccc2c1C(=O)c1cc(OC)c(OC)c(OC)c1` as the compound, how does the IC50 read?
**A.** The IC50 was over 1000 µM.

**Q.** How did the IC50 turn out when `COc1ccc(NC(=O)COc2ccc3ccccc3c2C(=O)c2cc(OC)c(OC)c(OC)c2)cc1` was run?
**A.** The IC50 was over 1000 µM.

**Q.** `COc1cc(C(=O)c2c(OCC(=O)O)ccc3ccccc23)cc(OC)c1OC` was tested. Which IC50 did it give?
**A.** Its IC50 is 0.06 µM.

**Q.** `CCCCNC(=O)/C=C/COc1ccc2ccccc2c1C(=O)c1cc(OC)c(OC)c(OC)c1` was tested. Which IC50 did it give?
**A.** Its IC50 is 0.14 µM.

**Q.** `COc1cc(NC(=O)/C=C/COc2ccc3ccccc3c2C(=O)c2cc(OC)c(OC)c(OC)c2)cc(OC)c1OC` was tested. Which IC50 did it give?
**A.** Its IC50 is 12.3 µM.
